Results from patent US9334246B2, “Substituted triazines for malaria treatment and chemoprophylaxis” (The United States of America, as represented by the …, priority 2013, dated 2016).
In brackets after ≈: the same amount, converted by molar mass.

Legend:
P. falciparum W2 = assay: Malaria SYBR Green Fluorescence Assay, W2 strain; type: cell-based, Plasmodium falciparum
[1] = biological target: hERG potassium ion channel (Homo sapiens, UniProt Q12809); assay: hERG patch clamp assay (% inhibition at 10 μM); conditions: for hERG (% inhibition): 10 μM
P. falciparum C235 = assay: Malaria SYBR Green Fluorescence Assay, C235 strain; type: cell-based, Plasmodium falciparum
P. falciparum D6 = assay: Malaria SYBR Green Fluorescence Assay, D6 strain; type: cell-based, Plasmodium falciparum
P. berghei = assay: Thompson Test, in vivo mouse malaria assay; parameters: species or system mice (ICR strain)
[2] = % inhibition at 10 μM, patch clamp
[3] = (160 × 3): 160 mg/kg for 3 days
[4] = Plasmodium falciparum, SYBR Green Assay

hERG potassium ion channel, sequence (Q12809 whole entry): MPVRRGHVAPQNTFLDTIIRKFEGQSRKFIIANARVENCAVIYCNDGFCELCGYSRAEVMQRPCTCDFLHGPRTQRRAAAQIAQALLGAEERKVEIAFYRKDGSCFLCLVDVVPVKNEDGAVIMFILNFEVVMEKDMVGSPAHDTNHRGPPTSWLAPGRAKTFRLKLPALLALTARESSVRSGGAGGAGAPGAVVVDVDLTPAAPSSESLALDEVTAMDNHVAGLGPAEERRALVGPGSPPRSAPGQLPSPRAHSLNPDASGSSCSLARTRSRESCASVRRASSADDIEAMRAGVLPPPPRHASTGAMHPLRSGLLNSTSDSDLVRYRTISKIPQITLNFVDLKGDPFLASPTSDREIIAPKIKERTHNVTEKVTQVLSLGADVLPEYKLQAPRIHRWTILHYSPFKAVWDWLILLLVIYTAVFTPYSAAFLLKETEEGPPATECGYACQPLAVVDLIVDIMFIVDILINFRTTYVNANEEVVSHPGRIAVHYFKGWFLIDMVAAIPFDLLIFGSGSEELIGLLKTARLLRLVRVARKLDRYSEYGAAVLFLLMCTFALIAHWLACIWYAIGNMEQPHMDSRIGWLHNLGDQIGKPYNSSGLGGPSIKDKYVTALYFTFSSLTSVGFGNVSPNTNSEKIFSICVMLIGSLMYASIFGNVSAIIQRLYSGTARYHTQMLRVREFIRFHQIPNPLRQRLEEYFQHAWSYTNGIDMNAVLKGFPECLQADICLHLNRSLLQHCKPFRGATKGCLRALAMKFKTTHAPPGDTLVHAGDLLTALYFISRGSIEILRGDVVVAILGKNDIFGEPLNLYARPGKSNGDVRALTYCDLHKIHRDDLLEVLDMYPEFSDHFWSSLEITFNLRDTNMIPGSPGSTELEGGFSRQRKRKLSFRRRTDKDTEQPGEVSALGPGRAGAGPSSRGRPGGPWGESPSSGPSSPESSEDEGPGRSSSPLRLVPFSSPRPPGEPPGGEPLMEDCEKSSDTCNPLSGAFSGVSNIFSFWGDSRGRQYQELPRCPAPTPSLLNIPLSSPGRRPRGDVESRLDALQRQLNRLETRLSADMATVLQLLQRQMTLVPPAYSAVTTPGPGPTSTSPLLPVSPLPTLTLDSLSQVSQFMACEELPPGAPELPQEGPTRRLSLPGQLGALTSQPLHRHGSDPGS

Q: How did the W2 (P. falciparum W2; SYBR Green Assay) turn out when `CS(=O)(=O)c1ccc(-c2nc(N3CC4CC3CN4)nc(C(Cl)(Cl)Cl)n2)cc1` (centres unmarked) [Compound 724, CS(═O)(═O)c1ccc(cc1)c2nc(nc(n2)C(Cl)(Cl)Cl)N3CC4CC3CN4] was run?
A: 71 ng/mL

Q: And the hERG ([1]; hERG activity as % inhibition)?
A: 70%

Q: What about the C235 (P. falciparum C235; SYBR Green Assay) of the same molecule?
A: 110 ng/mL

Q: What about the D6 (P. falciparum D6; SYBR Green Assay) of the same molecule?
A: 106 ng/mL

Q: And the “In vivo Results Thompson Assay (n/N Cures or Suppressive)” value (from here on “In vivo Results Thompson Assay”) (P. berghei; (80 × 3): 80 mg/kg for 3 days)?
A: (80 × 3) Suppressive

Q: `ClC(Cl)(Cl)c1ccc(-c2nc(NCCN3CCCC3)nc(C(Cl)(Cl)Cl)n2)cc1` [Compound 57] was tested. Which W2 (P. falciparum W2; SYBR Green Assay) did it give?
A: 6 ng/mL

Q: And the hERG [1, 2]?
A: 25%

Q: And the C235 (P. falciparum C235; SYBR Green Assay)?
A: 22 ng/mL

Q: What about the D6 (P. falciparum D6; SYBR Green Assay) of the same molecule?
A: 10 ng/mL

Q: What about the “In vivo Results Thompson Assay” value (P. berghei; (80 × 3): 80 mg/kg for 3 days) of the same molecule?
A: Suppressive

Q: What about the “In vivo Results Thompson Assay” value (P. berghei; [3]) of the same molecule?
A: 5/5

Q: With “FC(F)(F)OC1═CC═C(NC2═NC(═NC(═N2)N2CCCNCC2)C(Cl)(Cl)Cl)C═C1 [Compound 659]” as the molecule, how does the W2 (P. falciparum W2; SYBR Green Assay) read?
A: 18 ng/mL

Q: And the hERG ([1]; hERG activity as % inhibition)?
A: 58%

Q: And the C235 (P. falciparum C235; SYBR Green Assay)?
A: 38 ng/mL

Q: What about the D6 (P. falciparum D6; SYBR Green Assay) of the same molecule?
A: 19 ng/mL

Q: What about the “In vivo Results Thompson Assay” value (P. berghei; (80 × 3): 80 mg/kg for 3 days) of the same molecule?
A: (80 × 3) 4/5 Cures

Q: `CC(C)(C)c1ccc(-c2nc(NCC3(N)CCOCC3)nc(C(Cl)(Cl)Cl)n2)cc1` [Compound 314] was tested. Which W2 (P. falciparum W2; SYBR Green Assay) did it give?
A: 2 ng/mL

Q: And the hERG [1, 2]?
A: 5%

Q: And the C235 (P. falciparum C235; SYBR Green Assay)?
A: 16 ng/mL

Q: And the D6 (P. falciparum D6; SYBR Green Assay)?
A: 7 ng/mL

Q: What about the “In vivo Results Thompson Assay” value (P. berghei; (80 × 3): 80 mg/kg for 3 days) of the same molecule?
A: (80 × 3) Suppressive

Q: Which results are given for “NC1(CNC2═NC(═NC(═N2)C2═CC═C(C═C2)C2═CC═CC═C2)C(Cl)(Cl)Cl)CCCC1 [Compound 672]”?
A: W2 (P. falciparum W2; SYBR Green Assay): 30 ng/mL; hERG ([1]; hERG activity as % inhibition): 33%; C235 (P. falciparum C235; SYBR Green Assay): 68 ng/mL; D6 (P. falciparum D6; SYBR Green Assay): 46 ng/mL; In vivo Results Thompson Assay (n/N Cures or Suppressive) (P. berghei; (80 × 3): 80 mg/kg for 3 days): (80 × 3) 4/4 Cures

Q: Which W2 (P. falciparum W2; SYBR Green Assay) does the source give for `COc1cccc(-c2nc(NC3CCN(C)CC3)nc(C(Cl)(Cl)Cl)n2)c1` [Compound 193] here?
A: 22 ng/mL

Q: What about the hERG [1, 2] of the same molecule?
A: 93%

Q: And the C235 (P. falciparum C235; SYBR Green Assay)?
A: 17 ng/mL

Q: And the D6 (P. falciparum D6; SYBR Green Assay)?
A: 29 ng/mL

Q: And the “In vivo Results Thompson Assay” value (P. berghei; (80 × 3): 80 mg/kg for 3 days)?
A: (80 × 3) Suppressive

Q: Which W2 (P. falciparum W2; SYBR Green Assay) does the source give for `CC(C)(N)CNc1nc(-c2ccccc2)nc(C(Cl)(Cl)Cl)n1` [Compound 312] here?
A: 3 ng/mL

Q: What about the hERG [1, 2] of the same molecule?
A: 65%

Q: And the C235 (P. falciparum C235; SYBR Green Assay)?
A: 18 ng/mL

Q: What about the D6 (P. falciparum D6; SYBR Green Assay) of the same molecule?
A: 8 ng/mL

Q: And the “In vivo Results Thompson Assay” value (P. berghei; (40 × 3): 40 mg/kg for 3 days)?
A: Suppressive

Q: And the “In vivo Results Thompson Assay” value (P. berghei; (80 × 3): 80 mg/kg for 3 days)?
A: (80 × 3) 3/3 Cures;(40 × 3)

Q: For “CCN1CCC(CC1)C(C)Nc2nc(Nc3ccc(Cl)c(Cl)c3)nc(n2)C(Cl)(Cl)Cl [Compound 643]”, which “W2 (SYBR Green Assay IC50)” value (P. falciparum W2) is on record?
A: 0.033 µg/mL

Q: And the “hERG (% inhibition)” value [1]?
A: 100%

Q: And the “C235 (SYBR Green Assay IC50)” value (P. falciparum C235)?
A: 0.048 µg/mL

Q: What about the “D6 (SYBR Green Assay IC50)” value (P. falciparum D6) of the same molecule?
A: 0.047 µg/mL

Q: What about the “In vivo Results Thompson Assay” value (P. berghei; (80 × 3): 80 mg/kg for 3 days) of the same molecule?
A: (80 × 3) 2/5 Cures

Q: Which results are given for `CCN1CCCC(Nc2nc(-c3ccc(C(C)(C)C)cc3)nc(C(Cl)(Cl)Cl)n2)C1` (centres unmarked) [Compound 79]?
A: W2 (P. falciparum W2; SYBR Green Assay): 25 ng/mL; hERG [1, 2]: 51%; C235 (P. falciparum C235; SYBR Green Assay): 36 ng/mL; D6 (P. falciparum D6; SYBR Green Assay): 26 ng/mL; In vivo Results Thompson Assay (n/N Cures or Suppressive) (P. berghei; (80 × 3): 80 mg/kg for 3 days): (80 × 3) Suppressive

Q: How did the W2 (P. falciparum W2; SYBR Green Assay) turn out when `ClC(Cl)(Cl)c1nc(-c2ccc3ccccc3c2)nc(N2CCCNCC2)n1` [Compound 227] was run?
A: 10 ng/mL

Q: And the hERG [1, 2]?
A: 18%

Q: And the C235 (P. falciparum C235; SYBR Green Assay)?
A: 12 ng/mL

Q: And the D6 (P. falciparum D6; SYBR Green Assay)?
A: 29 ng/mL

Q: And the “In vivo Results Thompson Assay” value (P. berghei; (80 × 3): 80 mg/kg for 3 days)?
A: (80 × 3) 2/5 Cures

Q: `FC(F)(F)c1cccc(-c2nc(N3CC4CC3CN4)nc(C(Cl)(Cl)Cl)n2)c1` (centres unmarked) [Ex. 7, 2-(4-(trichloromethyl)-6-(3-(trifluoromethyl)phenyl)-1,3,5-triazin-2-yl)-2,5-diazabicyclo[2.2.1]heptane] was tested. Which IC50 (P. falciparum W2; [4]) did it give?
A: 0.126 µg/mL (≈ 0.287 µM)

Q: And the hERG ([1]; hERG activity as % inhibition)?
A: 29%

Q: And the IC50 (P. falciparum C235; [4])?
A: 0.192 µg/mL (≈ 0.438 µM)

Q: What about the IC50 (P. falciparum D6; [4]) of the same molecule?
A: 0.106 µg/mL (≈ 0.242 µM)

Q: What about the “In vivo Results Thompson Assay” value (P. berghei; (80 × 3): 80 mg/kg for 3 days) of the same molecule?
A: Suppressive

Q: And the “In vivo Results Thompson Assay” value (P. berghei; [3])?
A: 4/5

Q: Which results are given for `FC(F)(F)c1cccc(-c2nc(N3CCCNCC3)nc(C(Cl)(Cl)Cl)n2)c1` [Compound 108]?
A: W2 (P. falciparum W2; SYBR Green Assay): 47 ng/mL; hERG [1, 2]: 28%; C235 (P. falciparum C235; SYBR Green Assay): 82 ng/mL; D6 (P. falciparum D6; SYBR Green Assay): 70 ng/mL; In vivo Results Thompson Assay (n/N Cures or Suppressive) (P. berghei; (80 × 3): 80 mg/kg for 3 days): (80 × 3) Suppressive

Q: What does the source list for “CCN1CCCC(C1)Nc2nc(Nc3cc(Cl)cc(Cl)c3)nc(n2)C(Cl)(Cl)Cl [Compound 638]”?
A: W2 (SYBR Green Assay IC50) (P. falciparum W2): 0.005 µg/mL; hERG (% inhibition) [1]: 49%; C235 (SYBR Green Assay IC50) (P. falciparum C235): 0.005 µg/mL; D6 (SYBR Green Assay IC50) (P. falciparum D6): 0.005 µg/mL; In vivo Results Thompson Assay (n/N Cures or Suppressive) (P. berghei; (80 × 3): 80 mg/kg for 3 days): (80 × 3) Suppressive
